Structures can show the parent of a compound that is named as a salt.
What was measured:
[1] = system: TGF-β induced [14C]-proline incorporation in rat mesangial cells; assay: [14C]-proline incorporation assay (collagen biosynthesis); assay type: cell-based; settings: Rattus norvegicus, Mesangial cell, 44 h, inhibition of TGF-β1 (1 ng/ml) induced [14C]-proline incorporation, IRMC cells
[2] = MTS tetrazolium reduction cell viability assay; settings: rat, rat mesangial cells (1097/IRMC cells), TGF-β1 stimulated, CC50 (μM), vs 1% DMSO vehicle

| SMILES | IC50 [1] [µM] | CC50 at 48 h [2] [µM] |
| --- | --- | --- |
| C#CCNCc1cc(/C=C/C(=O)Nc2ccccc2C(=O)O)ccc1OC [Example 74, (E)-2-(3-(4-methoxy-3-((prop-2-yn-1-ylamino)methyl)phenyl)acrylamido)benzoic acid] | 14.7 | 319 |
| C#CCNCc1ccc(/C=C/C(=O)Nc2ccccc2C(=O)O)cc1OC [Example 75, (E)-2-(3-(3-methoxy-4-((prop-2-yn-1-ylamino)methyl)phenyl)acrylamido)benzoic acid] | 27.6 | > 300 |
| C#CCOc1ccc(/C=C/C(=O)Nc2cccc(C#N)c2)c(OCCN(C)C)c1OC [Example 76, (E)-N-(3-cyanophenyl)-3-[2-[2-(dimethylamino)ethoxy]-3-methoxy-4-prop-2-ynoxy-phenyl]prop-2-enamide] | 14.9 | 18.1 |
| C#CCOc1ccc(/C=C/C(=O)Nc2ccccc2C(=O)O)c(OCCN(C)C)c1OC [Example 78, (E)-2-(3-(2-(2-(dimethylamino)ethoxy)-3-methoxy-4-(prop-2-yn-1-yloxy)phenyl)acrylamido)-benzoic acid] | 30.4 | 404 |
| C#CCOc1ccc(/C=C/C(=O)Nc2ccccc2C#N)c(OC2CN(C)C2)c1OC [Example 79, (E)-N-(2-cyanophenyl)-3-[3-methoxy-2-(1-methylazetidin-3-yl)oxy-4-prop-2-ynoxy-phenyl]prop-2-enamide] | 9.52 | 23.4 |
| C#CCOc1ccc(/C=C/C(=O)Nc2ccccc2C(=O)O)c(OC2CCNC2)c1OC (stereo not drawn) [Example 80, 2-[[(E)-3-(3-methoxy-4-prop-2-ynoxy-2-pyrrolidin-3-yloxyphenyl)prop-2-enoyl]amino]benzoic acid] | 24.5 | > 100 |
| C#CCOc1ccc(/C=C/C(=O)Nc2ccccc2C(=O)O)c(OC2CCNCC2)c1OC [Example 83, 2-[[(E)-3-[3-methoxy-2-(4-piperidyloxy)-4-prop-2-ynoxy-phenyl]prop-2-enoyl]amino]benzoic acid] | 32.5 | > 300 |
| C#CCOc1ccc(/C=C/C(=O)Nc2ccccc2C(=O)O)c(OCCN2CCOCC2)c1OC [Example 84, 2-[[(E)-3-[3-methoxy-2-(2-morpholinoethoxy)-4-prop-2-ynoxy-phenyl]prop-2-enoyl]amino]benzoic acid] | 14.7 | > 300 |
| C#CCOc1ccc(/C=C/C(=O)Nc2ccccc2C(=O)O)c(OCCCN(C)C)c1OC [Example 86, 2-[[(E)-3-[2-[3-(dimethylamino)propoxy]-3-methoxy-4-prop-2-ynoxy-phenyl]prop-2-enoyl]amino]benzoic acid] | 24.9 | > 300 |
| COc1c(OCC2CC2)ccc(/C=C/C(=O)Nc2ccccc2C(=O)O)c1OCCN(C)C [Example 90, 2-[[(E)-3-[4-(cyclopropylmethoxy)-2-[2-(dimethylamino)ethoxy]-3-methoxy-phenyl]prop-2-enoyl]amino]benzoic acid] | 21.9 | > 300 |
| COc1cccc(/C=C/C(=O)Nc2ccccc2C#N)c1OCCN(C)C [Example 92, (E)-N-(2-cyanophenyl)-3-(2-(2-(dimethylamino)ethoxy)-3-methoxyphenyl)acrylamide] | 49.2 | 109 |
| COc1ccc(/C=C/C(=O)Nc2ccccc2C#N)c(OCCN(C)C)c1 [Example 94, (E)-N-(2-cyanophenyl)-3-[2-[2-(dimethylamino)ethoxy]4-methoxy-phenyl]prop-2-enamide] | 21.7 | 35 |
| C#CCOc1c(/C=C/C(=O)Nc2ccccc2C(=O)O)ccc(OC)c1OC [Example 95, (E)-2-(3-(3,4-dimethoxy-2-(prop-2-yn-1-yloxy)phenyl)acrylamido)benzoic Acid] | 17.6 | 111 |
| COc1ccc(/C=C/C(=O)Nc2ccccc2C(=O)O)c(OCc2cccnc2)c1OC [Example 96, (E)-2-(3-(3,4-dimethoxy-2-(pyridin-3-ylmethoxy)phenyl)acrylamido)benzoic Acid] | 33.6 | > 300 |
| COc1cc(/C=C/C(=O)Nc2ccccc2C(=O)O)ccc1N1CCN(C)CC1 [Example 97, (E)-2-(3-(3-methoxy-4-(4-methylpiperazin-1-yl)phenyl)acrylamido)benzoic acid] | 46.2 | > 300 |
| CCc1ccc(/C=C/C(=O)Nc2ccccc2C(=O)O)cc1OC [Example 100, (E)-2-(3-(4-ethyl-3-methoxyphenyl)acrylamido)benzoic Acid] | 9.29 | 37 |
| COc1ccc(/C=C/C(=O)Nc2ccccc2C(=O)O)cc1N1CCOCC1 [Example 101, (E)-2-(3-(4-methoxy-3-morpholinophenyl)acrylamido)benzoic Acid] | 17 | 119 |
| COc1cc(/C=C/C(=O)Nc2ccccc2C(=O)O)ccc1N1CCOCC1 [Example 103, (E)-2-(3-(3-methoxy-4-morpholinophenyl)acrylamido)benzoic acid trifluoroacetic acid salt] | 28 | 265 |
| CN1Cc2ccc(/C=C/C(=O)Nc3ccccc3C(=O)O)cc2C1=O [Example 108, (E)-2-(3-(2-methyl-3-oxoisoindolin-5-yl)acrylamido)benzoic acid] | 40.4 | > 300 |
| CN1C(=O)COc2cc(/C=C/C(=O)Nc3ccccc3C(=O)O)ccc21 [Example 109, (E)-2-(3-(4-methyl-3-oxo-3,4-dihydro-2H-benzo[b][1,4]oxazin-7-yl)acrylamido)benzoic Acid] | 24.3 | > 300 |
| CN1CCOc2cc(/C=C/C(=O)Nc3ccccc3C(=O)O)ccc21 [Example 110, (E)-2-(3-(4-methyl-3,4-dihydro-2H-benzo[b][1,4]oxazin-7-yl)acrylamido)benzoic acid] | 13.9 | > 300 |
| O=C(/C=C/c1ccc2c(c1)NC(=O)CO2)Nc1ccccc1C(=O)O [Example 111, (E)-2-(3-(3-oxo-3,4-dihydro-2H-benzo[b][1,4]oxazin-6-yl)acrylamido)benzoic acid] | 30 | > 300 |
| CN1C(=O)COc2ccc(/C=C/C(=O)Nc3ccccc3C(=O)O)cc21 [Example 112, (E)-2-(3-(4-methyl-3-oxo-3,4-dihydro-2H-benzo[b][1,4]oxazin-6-yl)acrylamido)benzoic acid] | 13 | > 300 |
| C#CCOc1ccc(/C=C/C(=O)Nc2ccccc2-n2cnc(C)n2)cc1CC [Example 114, (E)-3-(3-ethyl-4-(prop-2-yn-1-yloxy)phenyl)-N-(2-(3-methyl-1H-1,2,4-triazol-1-yl)phenyl)-acrylamide] | 14.3 | 82 |

Stronger by IC50 [1], values ahead:

| IC50 [1] [µM] | SMILES | CC50 at 48 h [2] [µM] |
| --- | --- | --- |
| 4.69 | C#CCOc1ccc(/C=C/C(=O)Nc2ccccc2C#N)c(OCCN(C)C)c1OC [Example 77] | 26.5 |
| 7.15 | C#CCOc1ccc(/C=C/C(=O)Nc2ccccc2C#N)c(OC2CCN(C)C2)c1OC (stereo not drawn) [Example 81, (E)-N-(2-cyanophenyl)-3-[3-methoxy-2-(1-methylpyrrolidin-3-yl)oxy-4-prop-2-ynoxy-phenyl]prop-2-enamide] | 24.9 |
| 3.42 | C#CCOc1ccc(/C=C/C(=O)Nc2ccccc2C#N)c(OC2CCNC2)c1OC (stereo not drawn) [Example 82, (E)-N-(2-cyanophenyl)-3-(3-methoxy-4-prop-2-ynoxy-2-pyrrolidin-3-yloxy-phenyl)prop-2-enamide] | 13.5 |
| 8.92 | C#CCOc1ccc(/C=C/C(=O)Nc2ccccc2C#N)c(OCCN2CCOCC2)c1OC [Example 85, (E)-N-(2-cyanophenyl)-3-[3-methoxy-2-(2-morpholinoethoxy)-4-prop-2-ynoxy-phenyl]prop-2-enamide] | 109 |
| 3.69 | C#CCOc1ccc(/C=C/C(=O)Nc2ccccc2C#N)c(OCCCN(C)C)c1OC [Example 87, (E)-N-(2-cyanophenyl)-3-[2-[3-(dimethylamino)propoxy]-3-methoxy-4-prop-2-ynoxy-phenyl]prop-2-enamide] | 12.1 |
| 4.45 | C#CCOc1ccc(/C=C/C(=O)Nc2ccccc2C#N)c(OC2CCNCC2)c1OC [Example 88, (E)-N-(2-cyanophenyl)-3-[3-methoxy-2-(4-piperidyloxy)-4-prop-2-ynoxy-phenyl]prop-2-enamide] | 12.4 |
| 4.66 | C#CCOc1ccc(/C=C/C(=O)Nc2ccccc2C#N)c(OC2CCN(C)CC2)c1OC [Example 89, (E)-N-(2-cyanophenyl)-3-[3-methoxy-2-[(1-methyl-4-piperidyl)oxy]-4-prop-2-ynoxy-phenyl]prop-2-enamide] | 19.8 |
| 8.38 | COc1cccc(/C=C/C(=O)Nc2cccc(C#N)c2)c1OCCN(C)C [Example 91, (E)-N-(3-cyanophenyl)-3-(2-(2-(dimethylamino)ethoxy)-3-methoxyphenyl)acrylamide] | 18.1 |
| 5.23 | COc1ccc(/C=C/C(=O)Nc2cccc(C#N)c2)c(OCCN(C)C)c1 [Example 93, (E)-N-(3-cyanophenyl)-3-(2-(2-(dimethylamino)ethoxy)-4-methoxyphenyl)acrylamide] | 17.2 |
| 8.44 | CCc1cc(/C=C/C(=O)Nc2ccccc2C(=O)O)ccc1OC [Example 105, (E)-2-(3-(3-ethyl-4-methoxyphenyl)acrylamido)benzoic acid] | 79.7 |
| 1.58 | COc1ccc(/C=C/C(=O)Nc2ccccc2C(=O)O)cc1CC1CC1 [Example 106, (E)-2-(3-(3-(cyclopropylmethyl)-4-methoxyphenyl)acrylamido)benzoic acid] | 25.1 |
| 7.75 | C#CCOc1ccc(/C=C/C(=O)N2CCOc3ccccc32)cc1CC [Example 113, (E)-1-(2H-benzo[b][1,4]oxazin-4(3H)-yl)-3-(3-ethyl-4-(prop-2-yn-1-yloxy)phenyl)prop-2-en-1-one] | 32.6 |
